Laboratory results as given in paper PMC10611796, “The α-synuclein PET tracer [18F] ACI-12589 distinguishes multiple system atrophy from other neurodegenerative diseases” (Nature Communications, 2023).

Molecular target: T1, α-synuclein (Homo sapiens, UniProt P37840)
T1 construct: gene SNCA; pathological α-syn aggregates in post-mortem human brain tissue
Test: radioligand saturation binding (autoradiography and radiobinding) on human brain tissue; displacement by unlabeled ACI-12589; micro-autoradiography

- Kd: 33.5 ± 17.4 nM
Substance: ACI-12589
